Experimental data published in patent US11447471B2, “α,β-unsaturated amide compound” (KYOWA KIRIN CO., LTD., priority 2017, dated 2022).

system: OVTOKO cells; experiment: Cell growth inhibitory effect on human ovarian cancer cell line (cell counting kit 8, 6 days); assay type: cell-based; settings: 144 h, 6 days incubation
Excerpt: NCI-H226 cells, a human mesothelioma cell line (ATCC, CRL-5826), NCI-H322 cells, a human lung cancer cell line (the European Collection of Authenticated Cell Cultures, 95111734), OUTOKO cells, a human ovarian cancer cell line (JCRB cell bank, KRB1048) and […] were each subcultured by keeping the cell density under 80% in a RPMI1640 culture medium with 10% fetal bovine serum (FBS). NCI-H226 cells, NCI-H322 cells and SSP-25 cells were each suspended in the RPMI1640 culture medium mentioned above, and plated to a 96-well flat-bottom plate at 500 cells/well in each well, and incubated at 37° C. in an incubator with 5% CO2 for one day. After the incubation, the evaluation of cell growth inhibitory activity was started. OVTOKO cells were suspended in the RPMI1640 culture medium mentioned above, and plated to a 96-well flat-bottom plate at 250 cells/well in each well, and incubated it at 37° C. in an incubator with 5% CO2 for one day. After the incubation, the evaluation of the cell growth inhibitory activity was started. The next day, a test compound was serially diluted to 5 times of its final concentration in the RPM11640 culture medium mentioned above, and the diluted solution was added to each well. In this case, the final concentration of DMSO in each well was adjusted to 0.1%. After the test compound was added, cells were incubated at 37° C. in an incubator with 5% CO2 for 6 days. At the addition of the test compound and 6 days after the addition, the cell counting measurement was performed using a cell counting kit 8 (made by DOJINDO) according to a protocol equivalent to DOJINDO's recommendation. A reagent contained in the kit was added to each plate and color reaction was performed for 2 or 3 hours at 37° C. in an incubator with 5% CO2. After the reaction, an absorbance at wavelength of 450 nm was measured using a microplate reader. A growth inhibition rate was calculated according to the following formula, from which the concentration of a test compound at which cell growth was inhibited by 50% (GI50 value) was determined.

GI50, ≤ 3000 nM:
C=CC(=O)NC1COc2c(Oc3ccc(C(F)(F)F)cc3)cccc2C1=O (racemic) [Compound 40, N-[4-Oxo-8-{4-(trifluoromethyl)phenoxy}chroman-3-yl]acrylamide]
C=CC(=O)N[C@@H]1c2ccc(Oc3ccc(C(F)(F)F)cc3)cc2OC[C@@H]1F (relative stereo) [Compound 21, cis-N-[3-Fluoro-7-{4-(trifluoromethyl)phenoxy}chroman-4-yl]acrylamide]
C=CC(=O)N[C@@H]1c2ccc(Oc3ccc(C(F)(F)F)cc3)cc2OC[C@H]1F (relative stereo) [Compound 22, trans-N-[3-Fluoro-7-{4-(trifluoromethyl)phenoxy}chroman-4-yl]acrylamide]
C=CC(=O)N[C@@H]1CC[C@H](Oc2ccc(C(F)(F)F)cc2)c2ncc(Cl)cc21 (relative stereo) [Compound 190, N-((5R*,8S*)-3-Chloro-8-(4-(trifluoromethyl)phenoxy)-5,6,7,8-tetrahydroquinolin-5-yl)acrylamide]
C=CC(=O)N[C@H]1CC[C@@H](Oc2ccc(C(F)(F)F)cc2)c2nc(Cl)ccc21 (relative stereo) [Compound 241, cis-N-[2-Chloro-8-{4-(trifluoromethyl)phenoxy}-5,6,7,8-tetrahydroquinolin-5-yl]acrylamide]
C=CC(=O)NC1CCOc2cc(Oc3ccc(C(F)(F)F)cc3)ccc21 (stereo not drawn) [Compound 5, N-[7-{4-(trifluoromethyl)phenoxy}chroman-4-yl]acrylamide]
[H]/C=C/C(=O)NC1CCOc2c1ccc(Oc1ccc(Cl)cc1)c2C (stereo not drawn) [Compound 27, N-{7-(4-Chlorophenoxy)-8-methylchroman-4-yl}acrylamide]
[H]/C=C/C(=O)NC1CCOc2c1ccc(Oc1ccc(C(F)(F)F)cc1)c2C (stereo not drawn) [Compound 28, N-[8-Methyl-7-{4-(trifluoromethyl)phenoxy}chroman-4-yl]acrylamide]
[H]/C=C/C(=O)NC1CCOc2c1ccc(Oc1ccc(Cl)cc1)c2OC (stereo not drawn) [Compound 32, N-{7-(4-Chlorophenoxy)-8-methoxychroman-4-yl}acrylamide]
C=CC(=O)NC1COc2cccc(Oc3ccc(C(F)(F)F)cc3)c2C1 (stereo not drawn) [Compound 35, N-[5-{4-(Trifluoromethyl)phenoxy}chroman-3-yl]acrylamide]
C=CC(=O)NC1COc2cc(Oc3ccc(Cl)cc3)ccc2C1 (stereo not drawn) [Compound 37, N-{7-(4-Chlorophenoxy)chroman-3-yl}acrylamide]
C=CC(=O)NC1COc2c(Oc3ccc(Cl)cc3)ccc(C)c2C1 (stereo not drawn) [Compound 41, N-{8-(4-Chlorophenoxy)-5-methylchroman-3-yl}acrylamide]
C=CC(=O)NC1COc2c(cccc2Oc2ccc(Cl)cc2)C1 (stereo not drawn) [Compound 59, N-{8-(4-chlorophenoxy)chroman-3-yl}acrylamide]
C=CC(=O)NC1COc2c(cccc2Oc2ccc(C(F)(F)F)cc2)C1 (stereo not drawn) [Compound 61, N-[8-{4-(Trifluoromethyl)phenoxy}chroman-3-yl]acrylamide]
C=CC(=O)Nc1cncc(Oc2cccc(C(F)(F)F)c2)c1 [Compound 95, N-[5-{3-(Trifluoromethyl)phenoxy}pyridin-3-yl)acrylamide]
C=CC(=O)Nc1cncc(Oc2ccc(C(F)(F)F)cc2)c1 [Compound 96, N-[5-{4-(Trifluoromethyl)phenoxy}pyridin-3-yl]acrylamide]
C=CC(=O)Nc1cncc(Oc2ccc(OC(F)(F)F)cc2)c1 [Compound 100, N-[5-{4-(Trifluoromethoxy)phenoxy}pyridin-3-yl]acrylamide]
C=CC(=O)Nc1cncc(Oc2ccc(Cl)c(Cl)c2)c1 [Compound 105, N-{5-(3,4-Dichlorophenoxy)pyridin-3-yl}acrylamide]
C=CC(=O)Nc1cncc(Oc2ccc(C(F)(F)F)c(F)c2)c1 [Compound 106, N-[5-{3-Fluoro-4-(trifluoromethyl)phenoxy}pyridin-3-yl]acrylamide]
C=CC(=O)Nc1cncc(Oc2cncc(C(F)(F)F)c2)c1 [Compound 107, N-(5-[{5-(Trifluoromethyl)pyridin-3-yl}oxy]pyridin-3-yl)acrylamide]
C=CC(=O)Nc1cncc(Oc2ccnc(C(F)(F)F)c2)c1 [Compound 108, N-(5-[{2-(Trifluoromethy)pyridin-4-yl}oxy]pyridin-3-yl)acrylamide]
C=CC(=O)Nc1cncc(Oc2ccc(C(F)(F)F)cn2)c1 [Compound 109, N-(5-[{5-(Trifluoromethyl)pyridin-2-yl}oxy]pyridin-3-yl)acrylamide]
C=CC(=O)Nc1ccc(Oc2ccccc2)c2ncccc12 [Compound 111, N-(8-Phenoxyquinolin-5-yl)acrylamide]
C=CC(=O)Nc1ccc(Oc2ccccc2)c2nc(C)ccc12 [Compound 112, N-(2-Methyl-8-phenoxyquinolin-5-yl)acrylamide]
C=CC(=O)Nc1ccc(Oc2cccc(Cl)c2)c2ncccc12 [Compound 114, N-{8-(3-Chlorophenoxy)quinolin-5-yl}acrylamide]
C=CC(=O)Nc1ccc(Oc2ccc(Cl)cc2)c2nc(C)ccc12 [Compound 117, N-{8-(4-Chlorophenoxy)-2-methylquinolin-5-yl}acrylamide]
C=CC(=O)Nc1ccc(OCC2CCC(F)(F)CC2)c2ncccc12 [Compound 126, N-[8-{(4,4-Difluorocyclohexyl)methoxy}quinolin-5-yl]acrylamide]
[H]/C=C/C(=O)NCc1ccc(Oc2ccc(Cl)cc2)c2ncccc12 [Compound 134, N-[{8-(4-Chlorophenoxy)quinolin-5-yl}methyl]acrylamide]
[H]/C=C/C(=O)NCc1ccc(Oc2cccc(C(F)(F)F)c2)c2ncccc12 [Compound 137, N-([8-{3-(Trifluoromethyl)phenoxy}quinolin-5-yl]methyl)acrylamide]
[H]/C=C/C(=O)NCc1ccc(Oc2ccc(C(F)(F)F)cc2)c2ncccc12 [Compound 138, N-([8-{4-(Trifluoromethyl)phenoxy}quinolin-5-yl]methyl)acrylamide]
[H]/C=C/C(=O)NCc1ccc(Oc2ccc(C(F)(F)F)nc2)c2ncccc12 [Compound 143, N-{(8-[{6-(Trifluoromethyl)pyridin-3-yl}oxy]quinolin-5-yl)methyl}acrylamide]
[H]/C=C/C(=O)NCc1cc(Oc2ccc(C(F)(F)F)nc2)nc2ccccc12 [Compound 149, N-{(2-[{6-(Trifluoromethyl)pyridin-3-yl}oxy]quinolin-4-yl)methyl}acrylamide]
[H]/C=C/C(=O)NCc1cc(Oc2ccnc(Cl)c2)nc2ccccc12 [Compound 150, N-([2-{(2-Chloropyridin-4-yl)oxy}quinolin-4-yl]methyl)acrylamide]
